Assay results taken from patent US20050208149A1, “Use of arsenic-containing pharmaceutical composition in combination with radiation therapy for cancer treatment” (TTY Biopharm Limited Company, priority 2004, published 2005).
Where “and” joins values, the source holds several entries; their conditions need not be identical. Equal values may be shown once.

Assays:
[1] = system: human cervical tumor xenografts; details: As2O3 pre-treatment in combination with ionizing radiation; Chun 2002; cited from earlier work
[2] = system: human cervical cancer cells; details: As2O3 pre-treatment in combination with ionizing radiation; Chun 2002; cited from earlier work
[3] = system: breast cancer patients with superficial fungating or skin-infiltrating tumors; assay: Monitoring for adverse effects (CTC version 2.0) during combined topical As2O3 and radiation treatment; assay type: in vivo, human; details: for Acute radiation dermatitis, case number / Anorexia, case number / Chronic radiation dermatitis, case number / Fatigue, case number / Granulocytosis, case number / Hyperpigmentation, case number / Leukopenia, case number / Nausea, case number / Thrombocytopenia, case number / Vomit, case number: of 7 patients, topical As2O3 + radiation
Excerpt: (§1) Between December 2001 and March 2003, seven patients of breast cancer with superficial fungating or skin-infiltrating tumors who had undergone standard treatments received topical As2O3 and radiotherapy at Mackay Memorial Hospital (Table 3). Eligibility criteria for the study included diagnosis of breast cancer confirmed by pathological examination. In addition, patients had to have relapsed after standard treatments such as surgery, radiation therapy or chemotherapy. Six patients had received post-operative radiation to the chest wall and axillary area. Written informed consent was required, and the study protocol was viewed and approved by the institutional review board of the Mackay Memorial Hospital.
(§2) As2O3 gel prepared by Example 2 was administered in daily topical doses that ranged from 0.01 to 0.5 mg/cm2/day, preferred from 0.05-0.15 mg/cm2/day. The gel was administered 1 h prior to the daily radiation treatment and was subsequently removed 5 min prior to the radiation exposure. Electron beam radiotherapy was delivered using a linear accelerator (9-12 MeV, dose rate 2.4 Gy/min; Clinac 1800; Varian Associates, Palo Alto, Calif.). Radiation was administered 5 days a week (total dose: 50 Gy in 25 fractions or 30 Gy in 10 fractions).
With regard to drug absorption via skin, possible systemic adverse effects were evaluated. Serial blood counts and serum chemistry profiles were performed. Serum chemistry profiles, including alanine aminotransferase, aspartate aminotransferase, blood urine nitrogen and creatinine, were measured using a Synchron LX20 spectrophotometer (Beckman Coulter, San Diego, Calif.). An electrocardiogram was recorded before and after irradiation for each patient. Adverse effect and toxicity were evaluated according to the Common Toxicity Criteria (CTC) version 2.0 published by the DCTD, NCI, NIH and DHHS in 1999.

[4] = system: cutaneous metastatic breast cancer; details: topical As2O3 alone; Cheng 2003; cited from earlier work
[5] = system: breast cancer patients with superficial fungating or skin-infiltrating tumors; assay: Assessment of response: topical As2O3 gel plus electron beam radiotherapy; assay type: in vivo, human; parameters: key to Tumor response: Complete: A complete response was defined as the disappearance of all known skin lesions within radiation fields confirmed by subsequent observation at least 4 weeks apart; Partial: a decrease in the sum of the maximal perpendicular diameters for involved skin area within radiation fields by more than 50%; Progressive: at least 25% increase in the sum of the maximal perpendicular diameters for involved skin area or the appearance of new lesions within radiation fields; Stable: All other tumor outcomes were classified as stable disease; details: for Reduction in VAS for skin pain: 100-mm scale
Excerpt: as §1, §2
Observation for tumor response and skin reaction was conducted daily, with photographs taken weekly. A complete response was defined as the disappearance of all known skin lesions within radiation fields confirmed by subsequent observation at least 4 weeks apart. A partial response was defined as a decrease in the sum of the maximal perpendicular diameters for involved skin area within radiation fields by more than 50% which was confirmed by subsequent observation at least 4 weeks apart. Progressive disease was defined as at least 25% increase in the sum of the maximal perpendicular diameters for involved skin area or the appearance of new lesions within radiation fields. All other tumor outcomes were classified as stable disease. For efficacy of pain control, chest wall pain was estimated using a visual analog scale (VAS) as a subjective assessment. The VAS scores before treatment were set as the baseline for every patient, and we compared the changes between subsequent data after treatment and the baseline data. When differences were greater than 50 mm in a 100-mm scale, we identified this patient as a responder. The daily need for changing dressings (CD) of wounds was also recorded by nurses in charge of each patient.

[6] = Wang Z. Y. 2001; cited from earlier work
[7] = combination of topical As2O3 and radiation, pilot study, seven patients
[8] = patient 1, skin infiltration, topical As2O3 gel + radiation 50 Gy
[9] = patient 2, skin infiltration, topical As2O3 gel + radiation 50 Gy
[10] = patient 3, skin infiltration, topical As2O3 gel + radiation 50 Gy
[11] = patient 4, fungating tumor, topical As2O3 gel + radiation 50 Gy
[12] = patient 5, fungating tumor, topical As2O3 gel + radiation 50 Gy
[13] = patient 6, fungating tumor, topical As2O3 gel + radiation 30 Gy
[14] = patient 7, fungating tumor, topical As2O3 gel + radiation 50 Gy

## arsenic trioxide [As2O3]
[1]
  Effect on regression of established xenografts: synergistic effect
[2]
  Effect on decreased clonogenic survival: synergistic effect
[3]; CTC grade 0
  Acute radiation dermatitis, case number: 1
  Anorexia, case number: 4
  Chronic radiation dermatitis, case number: 4
  Fatigue, case number: 3
  Granulocytosis, case number: 6
  Hyperpigmentation, case number: 7
  Leukopenia, case number: 7
  Nausea, case number: 4
  Thrombocytopenia, case number: 7
  Vomit, case number: 6
[3]; CTC grade 1
  Acute radiation dermatitis, case number: 1
  Anorexia, case number: 2
  Chronic radiation dermatitis, case number: 2
  Fatigue, case number: 2
  Granulocytosis, case number: 1
  Hyperpigmentation, case number: 0
  Leukopenia, case number: 0
  Nausea, case number: 2
  Thrombocytopenia, case number: 0
  Vomit, case number: 1
[3]; CTC grade 2
  Acute radiation dermatitis, case number: 3
  Anorexia, case number: 1
  Chronic radiation dermatitis, case number: 1
  Fatigue, case number: 2
  Granulocytosis, case number: 0
  Hyperpigmentation, case number: 0
  Leukopenia, case number: 0
  Nausea, case number: 1
  Thrombocytopenia, case number: 0
  Vomit, case number: 0
[3]; CTC grade 3
  Acute radiation dermatitis, case number: 2
  Anorexia, case number: 0
  Chronic radiation dermatitis, case number: 0
  Fatigue, case number: 0
  Granulocytosis, case number: 0
  Leukopenia, case number: 0
  Nausea, case number: 0
  Thrombocytopenia, case number: 0
  Vomit, case number: 0
[3]; CTC grade 4
  Acute radiation dermatitis, case number: 0
  Anorexia, case number: 0
  Chronic radiation dermatitis, case number: 0
  Fatigue, case number: 0
  Granulocytosis, case number: 0
  Leukopenia, case number: 0
  Thrombocytopenia, case number: 0
  Vomit, case number: 0
[3]; after completion of the radiation treatment
  Time to satisfactory healing of grade 3 acute radiation dermatitis: 2-3 weeks
[3]; combined treatment
  Hematological changes: no significant hematological changes were observed
  Number of patients with grade 3 acute radiation dermatitis (most severe observed): two
  Other adverse reactions: light-headedness during irradiation and moderate fatigue after radiation
  Patients developing grade 3 chronic radiation dermatitis: none
  Performance status: no changes in performance status were evident
[3]; daily application less than 1 h, treatment not more than 5 weeks
  Dermatological toxicity such as skin rash: we did not note any toxicity of this type
[3]; during the combined therapy
  Grade 2-4 granulocytosis or leukopenia: No grade 2-4 granulocytosis or leukopenia was noted
[3]; during the course of the combined treatment
  Skin pigmentation, renal or hepatic function: no skin pigmentation or significant changes in renal or hepatic function
[4]
  Local tumor control and wound secretion: improved local tumor control and decreased wound secretion
  Systemic absorption, pharmacokinetic study: no significant systemic absorption
  Systemic or local adverse effects: without significant systemic or local adverse effects
[5]; after treatment for 1 month, all superficial and fungating wounds
  Change in mean daily needed CD frequency: 4.4 to 0.9
[5]; chest wall fungating tumor, of seven patients, combined therapy
  Number of patients resistant, classified as stable disease: One
[5]; chest wall fungating tumors, of seven patients, combined therapy
  Number of patients with partial remission: three
[5]; chest wall skin-infiltrating lesions, of seven patients, combined therapy
  Number of patients with complete remission: three
[5]; [7]
  Clinical response rate, complete remission: 42.9%
  Clinical response rate, partial remission: 42.9%
[5]; of seven patients, combined therapy
  Number of patients with relief of chest wall pain assessed by VAS: seven
[5]; [8]
  Tumor response: Complete
  Reduction in VAS for skin pain: 75 mm
[5]; [9]
  Tumor response: Complete
  Reduction in VAS for skin pain: 65 mm
[5]; [10]
  Tumor response: Complete
  Reduction in VAS for skin pain: 80 mm
[5]; [11]
  Tumor response: Partial (a decrease in the sum of the maximal perpendicular diameters for involved skin area within radiation fields by more than 50%)
  Reduction in VAS for skin pain: 70 mm
[5]; [12]
  Tumor response: Partial (a decrease in the sum of the maximal perpendicular diameters for involved skin area within radiation fields by more than 50%)
  Reduction in VAS for skin pain: 65 mm
[5]; [13]
  Tumor response: Partial (a decrease in the sum of the maximal perpendicular diameters for involved skin area within radiation fields by more than 50%)
  Reduction in VAS for skin pain: 75 mm
[5]; [14]
  Tumor response: Stable
  Reduction in VAS for skin pain: 55 mm
[5]; the three patients with complete remission, respectively
  Cumulative radiation dosage for remission of chest wall skin lesions: 20 Gy and 22 Gy and 28 Gy

## S1[As]2S[As]3S[As]2S[As]13 [As4S4, tetraarsenic tetraslfide]
[6]
  Complete remission rate: 84.9%
